From paper PMC3770654, “Gastric Antimicrobial Peptides Fail to Eradicate Helicobacter pylori Infection Due to Selective Induction and Resistance” (PLoS ONE, 2013)
Read-outs that look alike come from different tables or passages of the source.

Key:
P. aeruginosa = assay: Killing of P. aeruginosa by elafin (data not shown); type: cell-based
E. coli ATCC 25922 [1] = assay: Flow cytometric viability assay with membrane potential sensitive dye DiBAC4(3); type: cell-based; conditions: for depolarized bacteria: 20 µg/ml peptide, 1.5x10^6 bacteria/ml in Schaedler Broth 1:6, 37°C, 90 minutes, then DiBAC4(3) 10 minutes, 10000 events
Description: (§1) The clinical isolate H. pylori KaE1 and the reference strains H. pylori DSM 9691, DSM 10242 and DSM 21031 were tested for susceptibility towards defensins, LL37 and elafin (amino acid sequences Table S1). The strain H. pylori DSM 10242 is positive for the virulence factors VacA and CagA. As control strain for antimicrobial activity served the sensitive E. coli ATCC 25922.
(§2) Bacterial viability after incubation with antimicrobial peptides or biopsy extracts was analyzed with the membrane potential sensitive dye DiBAC4(3) (bis-(1,3-dibutylbarbituric acid) trimethine oxonol) (Invitrogen, Carlsbad, CA, USA) as described previously. Briefly, 1.5x10^6 mid-logarithmic-phase bacteria/ml of H. pylori or E. coli in Schaedler Broth 1:6 were incubated with 20 µg/ml HBD1-4 (Peptide Institute, Osaka, Japan), elafin (Proteo Biotech, Kiel, Germany for FACS analysis and RDA and elafin from Peptide Institute, Osaka for CFU determination), with LL37 (Innovagen, Lund, Sweden) or with 10 µg total protein of antrum biopsy extracts at 37°C. After 90 minutes 1 µg/ml DiBAC4(3) was added to the suspensions and further incubated for 10 minutes. Then, the suspensions were centrifuged with 4500 x g for 10 minutes, pellets resuspended in 300 µl PBS and bacterial fluorescence was analyzed by a FACSCalibur^TM (BD, Sparks, USA), using Cell Quest software (BD, Sparks, USA). In each sample 10000 bacterial events were analyzed for green fluorescence and the antimicrobial activity was determined as percentage of depolarized, fluorescent bacteria. Inhibition of bacterial growth was tested by plating aliquots on Columbia blood agar and incubating at 37 C° for 2 days in a microaerophilic atmosphere with CampyGen (Oxoid, Hampshire, UK). Then colony forming units (CFU) were counted.

[2] = system: H. pylori KaE1, DSM 9691, DSM 10242 and DSM 21031; assay: Radial diffusion assay, four H. pylori strains; type: cell-based; conditions: 20 µg peptide per well, 3 days, 37 °C
Description: (§3) Additionally to determine inhibition of bacterial growth we performed radial diffusion assays with a modified protocol of the procedure from Robert Lehrer et al.. Briefly, H. pylori was grown on Columbia blood agar (BD, Sparks, USA), suspended in Brain Heart Infusion diluted 1:5 with aqua dest. and plated on an agar containing 20% brain heart infusion with 5% fetal calf serum. Wells with 3 mm diameter were punched into the agar and peptides were applied equivalent to the flow cytometric assay in a concentration of 20 µg per well. The agar plates were incubated for 3 days at 37 °C in a microaerophilic atmosphere with CampyGen.

[3] = system: H. pylori KaE1, DSM 9691, DSM 10242 and DSM 21031; assay: Flow cytometric viability assay with DiBAC4(3), four H. pylori strains; type: cell-based; conditions: for depolarized bacteria: all 4 H. pylori strains, 20 µg/ml peptide, Schaedler Broth 1:6, 37°C, 90 minutes, DiBAC4(3)
Description: as §1
(§4) H. pylori strains were cultured on Columbia blood agar at 37 C° for 2 days in a microaerophilic atmosphere with CampyGen (Oxoid, Hampshire, UK). Subsequently the bacteria were suspended in Schaedler Broth (BD, Sparks, USA) diluted 1:6 with aqua dest. for incubation with antimicrobial peptides.
as §2

H. pylori DSM 21031 [4] = assay: Plating on Columbia blood agar with CFU counting; type: cell-based; conditions: peptide 20 µg/ml, means of two independent experiments, control 7.45 x 10^5
Description: as §4, §2

H. pylori DMS 9691 = assay: Plating on Columbia blood agar with CFU counting; type: cell-based; conditions: peptide 20 µg/ml, means of two independent experiments, control 8.85 x 10^5
Description: as §4, §2

H. pylori DSM 10242 = assay: Plating on Columbia blood agar with CFU counting; type: cell-based; conditions: peptide 20 µg/ml, means of two independent experiments, control 6.10 x 10^5
Description: as §4, §2

H. pylori KaE = assay: Plating on Columbia blood agar with CFU counting; type: cell-based; conditions: peptide 20 µg/ml, means of two independent experiments, control 1.42 x 10^6
Description: as §4, §2

H. pylori [5] = conditions: cited from earlier work; for growth inhibition: ref 19 Kawauchi et al.
Text: Previously, Hase et al. had tested two H. pylori strains against the antimicrobials HBD1, HBD2 and LL37 and […], one strain tested was resistant to HBD1, while the second strain was sensitive. […] In the study by Hase et al. […] Th ...

H. pylori KaE1 [6] = assay: Radial diffusion assay; type: cell-based; conditions: 20 µg peptide per well, 3 days, 37 °C
Description: as §3

H. pylori DSM 21031 [7] = assay: Radial diffusion assay; type: cell-based; conditions: 20 µg peptide per well, 3 days, 37 °C
Description: as §3

E. coli ATCC 25922 [8] = assay: Binding of antimicrobial peptides to bacterial cells (flow cytometry, Streptavidin-PE); conditions: 20 µg/ml biotinylated LL37 or 20 µg/ml HBD2 with biotinylated HBD2-antibody, 30 minutes
Description: (§5) To investigate whether HBD2 and LL37 bind to the bacterial cell membrane, we incubated E. coli or H. pylori in Schaedler Broth 1:6 with 20 µg/ml biotinylated LL37 (Innovagen, Lund, Sweden) or 20 µg/ml HBD2 (Peptide Institute, Osaka, Japan) for 30 minutes. After centrifugation a biotinylated HBD2-antibody was added to the in PBS resuspended pellet of the HBD2 samples (Peprotech, Hamburg, Germany). Following washing with PBS, binding of biotinylated LL37 or of the HBD2-antibody was detected with Streptavidin-PE (BD Biosciences, Heidelberg, Germany). Suspensions incubated with HBD2 antibody and Streptavidin served as control. Fluorescence 2 of 10 000 events was measured with the FACSCalibur.

H. pylori [9] = assay: as above; conditions: 20 µg/ml biotinylated LL37 or 20 µg/ml HBD2 with biotinylated HBD2-antibody, 30 minutes
Description: as §5

H. pylori KaE1 [10] = assay: Transmission electron microscopy of peptide-treated bacteria; type: cell-based; conditions: H. pylori KaE1, 1.5x10^8 bacteria, 200 µg peptide/ml, 2 hours
Description: For electron microscopy 1.5x10^8 bacteria were incubated with 200 µg peptide/ml for 2 hours. Subsequently bacteria were fixed with Karnovsky solution, embedded in agarose, coagulated, cut in blocks and fixed once more in Karnovsky. After post fixation and embedding in glycid ether the specimen were cut with an ultra microtome. Sections of 30 nm were rinsed on copper grids and investigated with a Zeiss LIBRA 120 transmission electron microscope.

| Substance | killing of P. aeruginosa (P. aeruginosa) | depolarized bacteria (E. coli ATCC 25922 [1]) [%] | bactericidal effect (E. coli ATCC 25922 [1]; E. coli, elafin peptides from different companies) | zones of inhibition in radial diffusion assay ([2]; all four Helicobacter strains, microaerophilic) | bactericidal effect ([3]; H. pylori, elafin peptides from different companies) | depolarized bacteria [3] | Colony forming units (H. pylori DSM 21031 [4]) | Colony forming units (H. pylori DMS 9691) | Colony forming units (H. pylori DSM 10242) | Colony forming units (H. pylori KaE) | growth inhibition (H. pylori [5]; 30 µg/ml HBD2) [%] | growth inhibition (H. pylori [5]; 50 µg/ml HBD2) | effect on bacterial viability (H. pylori [5]; ref 20 Hase et al.) | growth in radial diffusion assay ([2]; the two other strains (not KaE1, not DSM 21031)) | zones of inhibition in radial diffusion assay (H. pylori KaE1 [6]) | zones of inhibition in radial diffusion assay (H. pylori DSM 21031 [7]) | binding to the bacterial surface (E. coli ATCC 25922 [8]) | binding to the bacterial surface (H. pylori [9]) | disintegration of bacterial cells (electron microscopy) (H. pylori KaE1 [10]) |
| --- | --- | --- | --- | --- | --- | --- | --- | --- | --- | --- | --- | --- | --- | --- | --- | --- | --- | --- | --- |
| Ala - Gln - Glu - Pro - Val - Lys - Gly - Pro - Val - Ser - Thr - Lys - Pro - Gly - Ser - Cys - Pro - Ile - Ile - Leu - Ile - Arg - Cys - Ala - Met - Leu - Asn - Pro - Pro - Asn - Arg - Cys - Leu - Lys - Asp - Thr - Asp - Cys - Pro - Gly - Ile - Lys - Lys - Cys - Cys - Glu - Gly - Ser - Cys - Gly - Met - Ala - Cys - Phe - Val - Pro - Gln (disulfide) [Elafin, epithelial antiprotease elafin (PI3), cationic, 4 disulphide bridges; Proteo Biotech or Peptide Institute] | limited killing | 4 | no bactericidal effect | no zones of inhibition | no bactericidal effect | less than 5% | 6.82 x 10^5 CFU/ml | 9.59 x 10^5 CFU/ml | 4.85 x 10^5 CFU/ml | 1.29 x 10^6 CFU/ml | – | – | – | – | – | – | – | – | – |
| Gly - Ile - Gly - Asp - Pro - Val - Thr - Cys - Leu - Lys - Ser - Gly - Ala - Ile - Cys - His - Pro - Val - Phe - Cys - Pro - Arg - Arg - Tyr - Lys - Gln - Ile - Gly - Thr - Cys - Gly - Leu - Pro - Gly - Thr - Lys - Cys - Cys - Lys - Lys - Pro (disulfide) [HBD2, human beta defensin 2, recombinant inducible defensin HBD2 (DEFB4A), Peptide Institute, Osaka] | – | 51 | – | – | – | less than 5% | 6.07 x 10^5 CFU/ml | 7.90 x 10^5 CFU/ml | 5.92 x 10^5 CFU/ml | 0.89 x 10^6 CFU/ml | 70 | complete inhibition | no effect on bacterial viability | not influenced | small inhibition zones | small inhibition zones | accumulated on the surface | accumulated on the surface | much less disintegration |
